# In PubChem BioAssay AID1549 (Sanford-Burnham Center for Chemical Genomics, 2009):
# The source made the active and inactive calls. The rule behind the calls is not given here.
# Molecular target: Influenza A virus M2 proton channel (A/TW/4845/1999 H1N1)
# Experiment: NMR binding screen, influenza A virus M2 proton channel, Kd (AID 1549)
# Settings: M2 protein
row,Structure (SMILES),Kd
1,O=C(Nc1cccnc1)c1cnn2cccnc12,> 4 mM (inactive)
2,O=c1c(-c2cc(O)c(O)c(O)c2)coc2cc(O)c(O)c(O)c12,> 4 mM (inactive)
3,CC(=O)Oc1cc(OC(C)=O)c2c(c1)O[C@H](c1ccc(OC(C)=O)c(OC(C)=O)c1)[C@H](OC(C)=O)C2,> 4 mM (inactive)
4,CNC(=O)C1CC(=O)N(c2ccc(O)cc2)C1 (configuration not stated),> 4 mM (inactive)
5,CN1CCN(C(=O)Nc2cccc3ccccc23)CC1,> 4 mM (inactive)
6,O=C(O)c1ccc(Oc2ccccc2)nc1,> 4 mM (inactive)
7,Cc1nc(NCc2ccco2)nc2c1C(=O)CC(C)C2 (configuration not stated),> 4 mM (inactive)
8,O=CN1CCN(C(=O)c2ccc(F)cc2)CC1,> 4 mM (inactive)
9,Cc1ccc(O)c(NC(=O)c2ccco2)c1,> 4 mM (inactive)
10,CC(=O)c1c(C)nc2ccccc2c1N,> 4 mM (inactive)
11,C[C@@H](N)[C@@H](O)c1ccccc1,> 4 mM (inactive)
12,Cc1occc1C(=O)NC1CCN(C)CC1,> 4 mM (inactive)
13,Cc1nccc(-c2cccc(N)c2)n1,> 4 mM (inactive)
14,CC(=O)Oc1cc2c(C(C)=O)coc2c2ccccc12,> 4 mM (inactive)
15,CC1(C)Cc2nc3[nH]c(=S)[nH]c(=O)c3cc2CO1,> 4 mM (inactive)
16,CC1=CC2C(C(C)C)CCC(C)(O)C2CC1 (configuration not stated),> 4 mM (inactive)
17,Cc1cc2c(=O)n(C)c(SCC(N)=O)nc2s1,> 4 mM (inactive)
18,O=C(Nc1ccncc1)c1cncc(Br)c1,> 4 mM (inactive)
19,Oc1ccccc1N=Cc1cccnc1,> 4 mM (inactive)
20,O=C(NCCO)c1cc2ccccc2c(=O)s1,> 4 mM (inactive)
21,CSc1nc(NC(C)(C)C)nc(N2CCOCC2)n1,> 4 mM (inactive)
22,OC(CCl)c1ccc(-n2cncn2)cc1 (configuration not stated),> 4 mM (inactive)
23,CC1(C)O[C@H]2[C@H](O)C[C@](O)(C(N)=O)C[C@H]2O1,> 4 mM (inactive)
24,C=CCCCCCCCCCCCC(O)CC(O)CO (configuration not stated) (tested in a mixture with another compound),> 4 mM (inactive)

row,Structure (SMILES),Kd
1,COC(=O)c1cccs1,> 4 mM (inactive)
2,Cn1cnc2cc(NC(=O)c3ccco3)ccc21,> 4 mM (inactive)
3,Cc1ccc2cc(N)ccc2n1,> 4 mM (inactive)
4,O=C1C2=C(SCCS2)C(=O)N1CCCO,> 4 mM (inactive)
5,CC(=O)Nc1ccc(CN2CCOCC2)cc1,> 4 mM (inactive)
6,COc1cc(OC)c2c(=O)c(-c3ccc4c(c3)OCO4)coc2c1,> 4 mM (inactive)
7,Cc1onc(-c2ccccc2)c1CO,> 4 mM (inactive)
8,Nc1c(C(=O)O)sc2ncccc12,> 4 mM (inactive)
9,CC1=C2C(=CO[C@H](C)[C@H]2C)C(=O)C(C(=O)O)=C1O,> 4 mM (inactive)
10,COC(=O)[C@H]1[C@H]2C[C@H]3c4[nH]c5ccccc5c4CCN3C[C@H]2CC[C@@H]1O,> 4 mM (inactive)
11,COc1c(C(=O)N2CCCC2)ccc2ccccc12,> 4 mM (inactive)
12,CN1C(=O)Cc2cc(S(N)(=O)=O)ccc21,> 4 mM (inactive)
13,Cc1cc(C(=O)c2c(C)nn(C)c2Cl)n(C)n1,> 4 mM (inactive)
14,O=C1NNC(=O)C2C3c4ccccc4C(c4ccccc43)C12 (configuration not stated),> 4 mM (inactive)
15,O=C1C(=O)N(CNc2ncccn2)c2ccccc21,> 4 mM (inactive)
16,Cc1nc(-c2ccc(C(=O)N3CCOCC3)cc2)cs1,> 4 mM (inactive)
17,CC(=O)c1c(O)c(C)c(O)c2c1OC1=CC(=O)C(C(C)=O)C(=O)C12C (configuration not stated),> 4 mM (inactive)
18,CN1C(=O)/C(=C/c2ccc(O)cc2O)SC1=S,> 4 mM (inactive)
19,O=c1c(-c2ccc(O)cc2)coc2cc(O)ccc12,> 4 mM (inactive)
20,O=C(CC1NC(=O)NC1=O)Nc1ccccc1 (configuration not stated),> 4 mM (inactive)
21,NC1=C([N+](=O)[O-])C(=O)c2ccccc21,> 4 mM (inactive)
22,S=c1[nH]nc(-c2cccnc2)n1Cc1ccccc1,> 4 mM (inactive)
23,O=C(c1ccc(F)cc1)C1CCNCC1,> 4 mM (inactive)
